ChEMBL document CHEMBL1201862, “PubChem BioAssay data set” (2004)
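Dose response: 5 concentrations. Exposure: 48 h. Format: 96-well plates. Endpoint: linear interpolation; highest concentration if not reached. At the GI50, growth is halved.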 The source made the active and inactive calls. Cut-off read from the data, not from the text of the source: active = GI50 up to about 1.1 µM and inactive = higher.

How the values were obtained:
Assay in all cases: NCI anticancer screen, dose series, 48 h
[1] = tested on: 786-0
[2] = tested on: A498
[3] = tested on: A549
[4] = tested on: ACHN
[5] = tested on: HOP-62
[6] = tested on: Hs-578T
[7] = tested on: IGROV-1
[8] = tested on: M14
[9] = tested on: MCF7
[10] = tested on: Malme-3M
[11] = tested on: NCI-H460
[12] = tested on: NCI-H522
[13] = tested on: NCI/ADR-RES
[14] = tested on: RPMI-8226
[15] = tested on: SK-OV-3
[16] = tested on: SNB-75
[17] = tested on: SR
[18] = tested on: TK-10
[19] = tested on: UACC-257
[20] = tested on: UO-31

Measured: GI50

CCOC(=O)Cc1csc(NC(NC(=O)OCC)(C(=O)OCC)C(F)(F)F)n1 (stereo not given)
inactive: [1] > 100 µM | [2] > 100 µM | [3] > 100 µM | [4] > 100 µM | [5] > 100 µM | [6] > 100 µM | [7] > 100 µM | [8] > 100 µM | [9] > 100 µM | [10] > 100 µM | [11] > 100 µM | [12] 16.9 µM | [13] > 100 µM | [14] > 100 µM | [15] > 100 µM | [16] > 100 µM | [17] > 100 µM | [18] > 100 µM | [19] > 100 µM | [20] > 100 µM

CC12NC(=C(C#N)C#N)C(C#N)=C3NC(N)=C(C#N)C(=C31)Oc1ccccc12 (stereo not given)
inactive: [1] 18.5 µM | [2] > 30.9 µM | [3] 17 µM | [4] > 25 µM | [5] 5.04 µM | [6] 6.46 µM | [7] 4.01 µM | [8] > 44.4 µM | [9] > 35.6 µM | [10] 20.6 µM | [11] 31 µM | [12] 56.2 µM | [13] > 100 µM | [14] > 32.7 µM | [15] 75 µM | [16] > 57.1 µM | [17] 2.59 µM | [18] > 31 µM | [19] > 100 µM | [20] > 100 µM

CN(C)Cc1cc(C(=O)O)cc(CN(C)C)c1O
inactive: [1] > 100 µM | [2] > 100 µM | [3] > 100 µM | [4] > 100 µM | [5] > 100 µM | [6] > 100 µM | [7] > 100 µM | [8] > 100 µM | [9] > 100 µM | [10] > 100 µM | [11] > 100 µM | [12] > 100 µM | [13] > 100 µM | [14] > 100 µM | [15] > 100 µM | [16] > 100 µM | [17] > 100 µM | [18] > 100 µM | [19] > 100 µM | [20] > 100 µM

Cc1nc(Nc2ccc(F)cc2)c2sc(=S)n(-c3ccc(F)cc3)c2n1
inactive: [1] 10 µM | [2] 16 µM | [3] 16 µM | [4] 13.7 µM | [5] 11.8 µM | [6] 14.5 µM | [7] 10.6 µM | [8] 2.94 µM | [9] 5.5 µM | [10] 14.6 µM | [11] 15.5 µM | [12] 16.1 µM | [13] 17.1 µM | [14] 5.01 µM | [15] 19.4 µM | [16] 16.1 µM | [17] 3.27 µM | [18] 14.5 µM | [19] 13.4 µM | [20] 16.5 µM

C/C(CC(O)(C(F)(F)F)C(F)(F)F)=N\NC(N)=O
inactive: [1] > 10 µM | [2] > 10 µM | [3] > 10 µM | [4] > 10 µM | [5] > 10 µM | [6] > 10 µM | [7] > 10 µM | [8] > 10 µM | [9] > 10 µM | [10] > 10 µM | [11] > 10 µM | [12] > 10 µM | [13] > 10 µM | [14] > 10 µM | [15] > 10 µM | [16] > 10 µM | [17] > 10 µM | [18] > 10 µM | [19] > 10 µM | [20] > 10 µM
